Results from US20180207228A1, “PEPTIDE COMBINATIONS AND USES THEREOF FOR TREATING GRASS ALLERGY” (ALK-Abelló A/S, priority 2015, published 2018).
Where no end group is shown, it is not given here.

What was measured:
Type in all cases: cell-based, human
[1] = system: allergen specific T cells; experiment: T cell proliferation assay (72 h) on donor derived T cell lines (TCL02/TCL03); settings: for Proliferation % donor coverage (TCL-02 DK1): T cell lines TCL-02 DK1, 30 donors, hit criteria SI>=2, CPM>=1000; for Proliferation strength (TCL-02 DK1): T cell lines TCL-02 DK1, strength of response (average relative magnitude)
Text: Isolated PBMCs (peripheral blood mononuclear cells) obtained from the donors described in Example 2 were CD8 depleted and the T cell lines were established by stimulating the cultures with nPhl p1, mix of nPhl p 2 and […] 5 and […] established for each of the donors tested by stimulating with the mixture of above listed allergens. Grass allergic donors were recruited (cohort DK1 including 30 grass allergic individuals, DK2 including 24 grass allergic individuals and US1 including 15 grass allergic individuals). PBMCs were isolated from freshly drawn heparinized blood by gradient centrifugation on lymphoprep (Nycomed, Norway), washed twice and re-suspended in RPMI 1640 medium with HEPES and ultraglutamine (Cambrex, Belgium) supplemented with 5% v/v human AB-serum (Cambrex, Belgium), 100 units/ml penicillin, and 0.1 mg/ml streptomycin (Sigma, St Louis, USA) (referred to as 5% AB-medium). Aliquots of the isolated PBMCs were frozen and were thawed later to stimulate the T cell lines. Additionally either fresh or thawed PBMCs were used as antigen presenting cells (APCs) in the proliferation assay as described later. In some cases the PBMCs were freezed at this stage and thawed later on to continue the experiment as described in the following. The isolated PBMCs (fresh or thawed) were CD8 depleted by MACS magnetic depletion according to the manufacturer's instructions (Miltenyi Biotec, Bergisch Gladbach, Germany). On day 0 the CD8-depleted PBMCs (2×10^6/ml) were stimulated in 1 ml bulk cultures in AB medium in 24 well plates (Nunc, Denmark) with the mixture of natural allergens: nPhl p 1 (0.5 μg/ml), mix of […]). […] On day 14 cells were harvested to obtain T cell line generation 01 (referred to as TCL01). Restimulation of T cell lines were performed in AB-medium with the thawed autologous PBMCs (10^6/well, irradiated 2500 Rad), the above mixture of natural allergens (concentration as mentioned above), and PHA-P (0.5 μg/ml, Difco, Detroit, Mich., USA). rIL-2 was added at day 17, 18 and 19. On day 24 cells were harvested to obtain T cell line generation 02 (referred as TCL02). T cells were isolated, washed, counted and used for T cell proliferation assay as described later. Remaining cells were frozen for later thawing and re-stimulations. The T cell line generation 2 (TCL02) were thawed and were re-stimulated with allogeneic Epstein Bar Virus transformed lymphoblastoid cell lines (EBV) B cells (JY cells, 10^5/well, irradiated 3500 Rad), allogeneic PBMCs (10^6/well, irradiated 2500 Rad), and 0.5 μg/ml PHA-P and subsequent addition of rIL-2 at days 3-5 to generate T cell line generation 03 (referred to as TCL03). […] To summarize ELISpot experiments were carried out at day 14 (with TCL01) and proliferation assay on either day 24 (with TCL02) or at day 34 (with TCL03). […] To ensure that all T cell epitopes regions from the major and intermediate grass allergens of the grass were identified T cell screening was carried out with either overlapping peptides or selected peptides. […] These were overlapping 20-mer peptides spanning the entire full length amino acid sequence of […] and selected high binder peptides from Phl p 4 were tested. Additionally 21, 15 mer peptides were tested which were derived from various group 1 and 5 allergens. Also, 67 peptides from homologous grass allergens were tested. Finally some reference peptides and mixes thereof were also tested. The 15-mer peptides were selected on the basis of predicted and measured promiscuous HLA binding and of sequence homology between known proteins sequences from the relevant pooideae grasses and the Bermuda grass. […] To get comprehensive data from all the donors the peptides were tested in both Fluorospot/Elispot (day 14, TCL01) and proliferation (day 24, TCL02).

[2] = system: release of IL-5 upon T cell activation; experiment: Fluorospot assay, IL-5 release (DK1-TCL01, US1-TCL01); settings: head prints TCL-02 DK1; text: 25 TCL-01 DK1 lines
Method: (§1) Grass allergic donors were recruited (cohort DK1 including 30 grass allergic individuals, DK2 including 24 grass allergic individuals and US1 including 15 grass allergic individuals). PBMCs were isolated from freshly drawn heparinized blood by gradient centrifugation on lymphoprep (Nycomed, Norway), washed twice and re-suspended in RPMI 1640 medium with HEPES and ultraglutamine (Cambrex, Belgium) supplemented with 5% v/v human AB-serum (Cambrex, Belgium), 100 units/ml penicillin, and 0.1 mg/ml streptomycin (Sigma, St Louis, USA) (referred to as 5% AB-medium). Aliquots of the isolated PBMCs were frozen and were thawed later to stimulate the T cell lines. Additionally either fresh or thawed PBMCs were used as antigen presenting cells (APCs) in the proliferation assay as described later. In some cases the PBMCs were freezed at this stage and thawed later on to continue the experiment as described in the following. The isolated PBMCs (fresh or thawed) were CD8 depleted by MACS magnetic depletion according to the manufacturer's instructions (Miltenyi Biotec, Bergisch Gladbach, Germany). On day 0 the CD8-depleted PBMCs (2×10^6/ml) were stimulated in 1 ml bulk cultures in AB medium in 24 well plates (Nunc, Denmark) with the mixture of natural allergens: nPhl p 1 (0.5 μg/ml), mix of nPhl p 2/nPhl p 3 (1.0 μg/ml), nPhl p 4 (0.5 μg/ml), nPhl p 5 (0.5 μg/ml) and nCyn d 1 (0.5 μg/ml). Amount of 65 U, 30 U, and 30 U recombinant IL-2 (Chiron, USA) were added per well at days 5, 6 and 7, respectively. On day 14 cells were harvested to obtain T cell line generation 01 (referred to as TCL01).
(§2) On day 14 the T cells of TCL01 were isolated, washed and counted. The isolated T cells of TCL01 generation were used to perform either ELISpot or Fluorospot assay. TCL01 were further re-stimulated as described in the next paragraph for use in T cell proliferation. The aliquot for use in T cell proliferation was re-stimulated on day 14 to carry out proliferation experiment at day 24.
(§3) In the Fluorospot assays, release of IL-5 and IFN-γ upon T cell activation (of donor derived lines DK1-TCL01, and US1-TCL01) with a peptide or a peptide-mix described herein was measured by Fluorospot assay kit (Mabtech AB) and procedures were followed as per manufacturer's instructions. Briefly anti-human IL-5 and anti-human IFN-γ coated 96 well plates were obtained and blocked with 10% AB serum in RPMI. The plates were washed thoroughly and the isolated T cells were plated and incubated with either single peptides (2 μg/ml) or peptide mixes (2 μg/ml), or allergens nPhl p1, nPhl p 2, nPhl p 3, nPhl p 4, nPhl p 5, Cyn d 1 at 2 μg/ml for 20 hrs/37° C./5% CO2. After the incubation time the cells were removed by emptying the plate. Detection antibodies 7-B6-1-FS-FITC (1:200) and 5A10-biotin (2 μg/ml) were diluted in PBS-0.1% BSA and were added to the plate and incubated for 2 hours/room temperature (RT). There-after the plates were washed and anti-FITC-green (1:200) and SA-Red (1:200) diluted in PBS±0.1% BSA were added and incubated for 1 hour/RT/dark. After the incubation period the plates were washed, emptied and fluorescence enhancer solution was added for 15 minutes/RT. Plates were emptied, fluorescence enhancer solution was firmly tapped out against a clean paper, soft plastic under drain was removed and the plates were left in the dark to dry. The counts were inspected in a fluorospot reader. Hit criteria for peptide were 20 SFCs/10^6 PBMCs, p≤0.05 and poisson 0.05 stimulated cells compared to background, and a stimulation index (SI)≥2.
(§4) The peptides were identified as hits if they fulfilled the criteria as mentioned below where stimulation index (SI) value of 2 or above, Poisson value=<0.05 and P value=<0.05, SFC>=20 (IL-5/IFN-g)/10^6 cells and CPM>=1000 (proliferation) SI can be defined as [[…]/medium control] in a Fluorospot assay and [counts per minute (cpm)/medium control] in a proliferation assay.

[3] = system: release of IFN-γ upon T cell activation; experiment: Fluorospot assay, IFN-γ release (DK1-TCL01, US1-TCL01); settings: head prints TCL-02 DK1; 17 TCL-01 DK1 lines
Method: as §1, §2, §3, §4

Row | Compound | Proliferation % donor coverage (TCL-02 DK1) [1] [%] | Proliferation strength (TCL-02 DK1) [1] | IL-5-Fluorospotr % donor coverage (TCL-02 DK1) [2] [%] | IFN-gamma % donor coverage (TCL-02 DK1) [3] [%]
1 | TATYGSKWLEARATFYGSNP-OH [compound 90] | 26.67 | 3.50 | 12.00 | 4.00
2 | KEDFLGSLVKEIPPRLLYAK-OH [compound 45] | 20.00 | 4.00 | 4.00 | 0.00
3 | GDEQKLRSAGELELQFRRVK-OH [compound 6] | 46.67 | 7.10 | 20.00 | 4.00
4 | PFDGMTASGNEPIFKDGLGS-OH [compound 94] | 16.67 | 2.90 | 4.00 | 4.00
5 | GFGMLLRKYGIAAENVIDVK-OH [compound 48] | 30.00 | 4.70 | 4.00 | 15.00
6 | RFLTEKGMKNVFDDVVPEKY-OH [compound 34] | 6.67 | 0.60 | 4.00 | 0.00
7 | AEPAGKATTEEQKLIEKINA-OH [compound 74] | 10.00 | 1.50 | 4.00 | 0.00
8 | CC[C@H](C)[C@H](NC(=O)[C@@H](N)CC(=O)O)C(=O)N[C@@H](CC(N)=O)C(=O)N[C@H](C(=O)NCC(=O)N[C@@H](Cc1ccccc1)C(=O)N[C@@H](CCCCN)C(=O)N[C@@H](C)C(=O)N[C@@H](C)C(=O)N[C@H](C(=O)N[C@@H](C)C(=O)N[C@@H](C)C(=O)N[C@@H](C)C(=O)N[C@@H](C)C(=O)NCC(=O)O)C(C)C)C(C)C [compound 131] | 55.55 | 6.50 | 22.22 | 0.00
9 | EQKLIEKINAGFKAALAAAA-OH [compound 62] | 36.67 | 6.20 | 4.00 | 0.00
10 | PYVSKNPRQAYANYRDIDLG-OH [compound 56] | 20.00 | 3.10 | 0.00 | 4.00
11 | GQEDKLRKAGELTLQFRRVK-OH [compound 101] | 13.33 | 1.20 | 4.00 | 0.00
12 | AIGDKPGPNITATYGSKWLE-OH [compound 89] | 6.67 | 1.10 | 0.00 | 0.00
13 | CC(C)C[C@H](NC(=O)[C@H](CCC(=O)O)NC(=O)CN)C(=O)N[C@@H](CCC(=O)O)C(=O)N[C@@H](CC(C)C)C(=O)N[C@@H](CCC(N)=O)C(=O)N[C@@H](Cc1ccccc1)C(=O)N[C@@H](CCCNC(=N)N)C(=O)N[C@@H](CCCNC(=N)N)C(=O)N[C@H](C(=O)N[C@@H](CCCCN)C(=O)N[C@@H](CO)C(=O)N[C@@H](CCCCN)C(=O)N[C@@H](Cc1ccc(O)cc1)C(=O)N1CCC[C@H]1C(=O)O)C(C)C [compound 118] | 65.52 | 11.50 | 25.00 | 4.00
14 | CC[C@H](C)[C@H](NC(=O)[C@@H](NC(=O)[C@H](CCC(=O)O)NC(=O)[C@H](CC(=O)O)NC(=O)[C@H](Cc1ccccc1)NC(=O)[C@@H](NC(=O)[C@@H](N)CC(N)=O)C(C)C)C(C)C)C(=O)N1CCC[C@H]1C(=O)N[C@H](C(=O)N[C@@H](C)C(=O)N[C@@H](Cc1ccccc1)C(=O)N[C@H](C(=O)N[C@H](C(=O)NCC(=O)N[C@@H](CCCCN)C(=O)O)C(C)C)[C@@H](C)O)[C@@H](C)O [compound 127] | 10.34 | 2.80 | 0.00 | 0.00
15 | FRRVKSKYPEGTKVTFHVEK-OH [compound 23] | 20.00 | 1.60 | 4.00 | 0.00
